In the supplement of paper PMC10307832:

Columns and labels:
Test in all cases: relative viability (nuclei count vs DMSO), 5 days (fraction); higher = more cells survive
[1] = compound: CC(C)N(CCCNC(=O)Nc1ccc(C(C)(C)C)cc1)C[C@H]1O[C@@H](n2ccc3c(N)ncnc32)[C@H](O)[C@@H]1O + CS(=O)(=O)CCNCc1ccc(-c2ccc3ncnc(Nc4ccc(OCc5cccc(F)c5)c(Cl)c4)c3c2)o1 [Lapatinib] (partner 2 µM)
In short: (§1)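 Relative viability divides the nuclei count in treated wells by that in vehicle wells. Lung cancer cell lines were seeded in 1536-well plates, dosed by pin tool the next day, and fixed and stained after 5 days in one step with final 0.05% Triton X-100, 1% formaldehyde and 1 ug/ml Hoechst. Dosing was a single drug or a fixed anchor-drug dose plus five library-drug doses (not always all listed) in √10 steps, and values are medians of duplicate plates imaged at 4×.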

[2] = compound: CC(C)N(CCCNC(=O)Nc1ccc(C(C)(C)C)cc1)C[C@H]1O[C@@H](n2ccc3c(N)ncnc32)[C@H](O)[C@@H]1O + Nc1nc2[nH]cc(CCc3ccc(C(=O)N[C@@H](CCC(=O)O)C(=O)O)cc3)c2c(=O)[nH]1 [Pemetrexed] (partner 0.2 µM)
In short: as §1

[3] = compound: CC(C)N(CCCNC(=O)Nc1ccc(C(C)(C)C)cc1)C[C@H]1O[C@@H](n2ccc3c(N)ncnc32)[C@H](O)[C@@H]1O + COc1cccc2cc(-c3nc([C@H]4CC[C@H](C(=O)O)CC4)n4ncnc(N)c34)[nH]c12 [OSI-027] (partner 0.5 µM)
In short: as §1

Shikonin + Foretinib = compound: CC(C)=CC[C@@H](O)C1=CC(=O)c2c(O)ccc(O)c2C1=O [Shikonin] + COc1cc2c(Oc3ccc(NC(=O)C4(C(=O)Nc5ccc(F)cc5)CC4)cc3F)ccnc2cc1OCCCN1CCOCC1 [Foretinib] (partner 0.25 µM)
In short: as §1

Cell Line | relative viability ([1]; first compound 0.08 µM) | relative viability ([1]; first compound 0.253 µM) | relative viability ([1]; first compound 0.8 µM) | relative viability ([1]; first compound 2.53 µM) | relative viability ([1]; first compound 8 µM) | relative viability ([2]; first compound 0.08 µM) | relative viability ([2]; first compound 0.253 µM) | relative viability ([2]; first compound 0.8 µM) | relative viability ([2]; first compound 2.53 µM) | relative viability ([2]; first compound 8 µM) | relative viability ([3]; first compound 0.08 µM) | relative viability ([3]; first compound 0.253 µM) | relative viability ([3]; first compound 0.8 µM) | relative viability ([3]; first compound 2.53 µM) | relative viability ([3]; first compound 8 µM) | relative viability (Shikonin + Foretinib; first compound 0.01 µM) | relative viability (Shikonin + Foretinib; first compound 0.1 µM) | relative viability (Shikonin + Foretinib; first compound 0.3162 µM) | relative viability (Shikonin + Foretinib; first compound 1 µM)
NCI-H1755 | 1.02 | 1.06 | 0.841 | 0.979 | 0.944 | 0.391 | 0.447 | 0.387 | 0.489 | 0.348 | 0.801 | 0.753 | 0.672 | 0.717 | 0.667 | 0.932 | 1.02 | 0.967 | 0.956
NCI-H1793 | 0.607 | – | 0.554 | 0.599 | 0.636 | 0.77 | – | 0.831 | 0.801 | 0.767 | 0.27 | – | 0.228 | 0.274 | 0.291 | 0.783 | 0.737 | 0.792 | 0.59
NCI-H1915 | 1.02 | 0.981 | 0.783 | 0.925 | 0.87 | 0.444 | 0.473 | 0.449 | 0.467 | 0.497 | 0.58 | 0.732 | 0.651 | 0.645 | 0.624 | 1.13 | 1.12 | 1.15 | 1.2
NCI-H1944 | 0.764 | 0.88 | 0.652 | 0.847 | 0.795 | 0.601 | 0.593 | 0.552 | 0.695 | 0.595 | 0.413 | 0.41 | 0.401 | 0.452 | 0.405 | 0.94 | 0.954 | 0.989 | 0.94
NCI-H1975 | 0.752 | 0.805 | 0.473 | 0.752 | 0.656 | 0.303 | 0.296 | 0.292 | 0.3 | 0.286 | 0.729 | 0.672 | 0.403 | 0.577 | 0.598 | 1 | 0.921 | 0.947 | 0.973
NCI-H1993 | 0.857 | 0.734 | 0.769 | 0.819 | 0.775 | 0.564 | – | 0.533 | 0.638 | 0.543 | 0.521 | – | – | 0.578 | 0.56 | 0.782 | 0.696 | 0.767 | 0.715
NCI-H2009 | 1.01 | 0.818 | 0.716 | 0.888 | 0.792 | 0.994 | 1.05 | 0.97 | 0.975 | 0.953 | 0.641 | 0.722 | 0.702 | 0.599 | 0.587 | 1.24 | 1.37 | 1.31 | 1.06
NCI-H2023 | 0.735 | 0.425 | 0.752 | 0.787 | 0.592 | 0.246 | 0.246 | 0.232 | 0.215 | 0.213 | 0.375 | 0.501 | 0.414 | 0.392 | 0.353 | 0.921 | 0.863 | 0.887 | 0.931
NCI-H2085 | 0.782 | 0.681 | 0.747 | 0.858 | 0.798 | 0.877 | 0.61 | 0.899 | 1.05 | 0.975 | 0.847 | 0.621 | 0.705 | 0.757 | 1 | 0.851 | 1.06 | 0.996 | 0.753
NCI-H2087 | 1.03 | 1.16 | 0.825 | 1.01 | 0.996 | 0.718 | 0.653 | 0.714 | 0.735 | 0.662 | 0.443 | 0.707 | 0.402 | 0.653 | 0.586 | 1.04 | 1.07 | 1.19 | 1.1
NCI-H2126 | 0.721 | 0.735 | 0.681 | 0.718 | 0.742 | 0.657 | 0.619 | 0.696 | 0.665 | 0.691 | 0.627 | 0.77 | 0.734 | 0.715 | 0.672 | 1.06 | 1.2 | 1.18 | 1.43
NCI-H2170 | 0.248 | 0.26 | 0.256 | 0.262 | 0.266 | 0.261 | 0.263 | 0.261 | 0.296 | 0.29 | 0.675 | 0.7 | 0.669 | 0.709 | 0.748 | 1.03 | 0.88 | 1.06 | 1.02
NCI-H2228 | 0.971 | – | 1.06 | 0.949 | 0.984 | 0.336 | 0.326 | 0.313 | 0.298 | 0.337 | 0.614 | 0.632 | 0.526 | 0.623 | 0.78 | 0.824 | 0.619 | 0.895 | 0.806
NCI-H2347 | 0.965 | 0.999 | 0.654 | 0.968 | 0.934 | 0.444 | 0.411 | 0.439 | 0.441 | 0.409 | 0.459 | 0.427 | 0.413 | 0.574 | 0.509 | 1.15 | 1.27 | 0.835 | 0.953
NCI-H2405 | 1.14 | – | 0.811 | 1.13 | 1.09 | 1.09 | 1.08 | 0.999 | 1.01 | 0.968 | 0.626 | 0.678 | 0.684 | 0.668 | 0.592 | 1.06 | 1.08 | 1.15 | 1.03
NCI-H3122 | 1.09 | 0.938 | 1.02 | 1.02 | 1.03 | 0.211 | 0.194 | 0.198 | 0.192 | 0.199 | 0.897 | 1.02 | 0.925 | 0.926 | 0.722 | 0.959 | 0.997 | 0.947 | 1.01
PC-3 [JPC-3] | 0.433 | 0.478 | 0.419 | 0.467 | 0.462 | 1.06 | 1.08 | – | 1.09 | 1.08 | 0.801 | 0.867 | 0.718 | 0.779 | 0.721 | 1.06 | 1.16 | 1.1 | 1.1
